The values below come from patent US11384060B2, “Amide compounds and use thereof” (ALPHALA CO., LTD., priority 2017, dated 2022).

For orientation: IC50 means the concentration that inhibits the measured activity by half. A low value points to inhibition by little substance.

The target of experiment [1] is T1, glucagon receptor (GCGR) overexpressed CHO-K1 cells or human primary hepatocytes (Homo sapiens, UniProt P47871).
T1 construct: expressed in transfected cells; host or cells: GCGR overexpressed CHO-K1 cells or human primary hepatocytes (endogenous receptor)
T1 sequence (P47871 26-477): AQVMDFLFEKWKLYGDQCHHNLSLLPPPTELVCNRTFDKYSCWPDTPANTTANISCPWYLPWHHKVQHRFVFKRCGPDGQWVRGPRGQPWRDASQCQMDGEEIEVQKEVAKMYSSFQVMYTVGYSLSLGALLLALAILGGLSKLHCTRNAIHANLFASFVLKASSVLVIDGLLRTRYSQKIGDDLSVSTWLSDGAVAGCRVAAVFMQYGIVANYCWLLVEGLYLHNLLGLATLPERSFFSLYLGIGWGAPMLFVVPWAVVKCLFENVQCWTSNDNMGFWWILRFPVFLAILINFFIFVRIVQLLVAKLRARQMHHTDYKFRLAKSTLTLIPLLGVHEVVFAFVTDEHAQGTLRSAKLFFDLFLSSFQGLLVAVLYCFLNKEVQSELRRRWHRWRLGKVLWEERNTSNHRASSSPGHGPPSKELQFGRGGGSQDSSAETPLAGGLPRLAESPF
The experiment is described as follows: Glucagon cAMP inhibition assay (Cisbio cAMP Dynamic 2 HTRF). The note with it: inhibition of glucagon (EC50 concentration) induced cAMP production. The format is cell-based. Put shortly: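 GCGR-overexpressing CHO-K1 cells or human primary hepatocytes in HBSS with 0.1% BSA and 800 nM IBMX, pre-incubated 30 min with serially diluted compounds (1% DMSO final), then stimulated 30 min at room temperature with glucagon at its EC50. cAMP measured by HTRF after 60 min lysis; IC50 by non-linear regression.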
(Time-resolved FRET reads energy transfer from a long-lived donor to a nearby acceptor.)

Another experiment addresses T2, glucagon receptor (GCGR) (Homo sapiens, UniProt P47871).
T2 construct: expressed in transfected cells; host or cells: CHO-K1 cells overexpressing GCGR (membrane fractions)
The experiment is described as follows: I125-glucagon binding assay (competition, GCGR membrane fractions). The note with it: competition with I125-glucagon 0.0625 nM, membrane fractions of GCGR overexpressed CHO-K1 cells. Put shortly:
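Membranes from CHO-K1 cells overexpressing GCGR, 7.5 μg/well in 50 mM Tris pH 7.4 with 0.5% BSA, were preincubated 5 min with serially diluted compounds, then given 0.0625 nM final I^125-glucagon for 30 min at 25° C. Bound label was filtered on PEI-coated GF/B and counted; IC50 by non-linear regression.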

T2 sequence (P47871 26-477): as above

For the compound `CCCC[C@@H](COc1ccc(-c2ccc(C(F)(F)F)cc2F)nc1)Nc1ccc(C(=O)NCCC(=O)O)cc1` [Compound 10-8, (S)-3-(4-((1-((6-(2-fluoro-4-(trifluoromethyl)phenyl)pyridin-3-yl)oxy)hexan-2-yl)amino)benzamido)propanoic Acid], in experiment [1], the “IC50 cAMP” value was 344 nM. On glucagon receptor (GCGR), this compound displayed an IC50 of 180 nM.
For the compound `CCCC[C@@H](COc1ccc(-c2ccc(C(F)(F)F)cc2)nc1)Nc1ccc(C(=O)NCCC(=O)O)cc1` [Compound 10-9, (S)-3-(4-((1-((6-(4-(trifluoromethyl)phenyl)pyridin-3-yl)oxy)hexan-2-yl)amino)benzamido)propanoic Acid], the “IC50 cAMP” value in experiment [1] was 465 nM. This compound registered an IC50 on glucagon receptor (GCGR) of 127 nM.
On the same counts, the results for `CCCC[C@@H](COc1ccc(-c2cc(Cl)cc(Cl)c2)nc1)Nc1ccc(C(=O)NCCC(=O)O)cc1` [Compound 10-10, (S)-3-(4-((1-((6-(3,5-dichlorophenyl)pyridin-3-yl)oxy)hexan-2-yl)amino)benzamido) propanoic Acid] are 493 nM and 314 nM.
On the same counts, the results for `CCCC[C@@H](COc1ccc(-c2ccc(C(F)(F)F)cc2Cl)nc1)Nc1ccc(C(=O)NCCC(=O)O)cc1` [Compound 10-11, (S)-3-(4-((1-((6-(2-chloro-4-(trifluoromethyl)phenyl)pyridin-3-yl)oxy)hexan-2-yl)amino)benzamido)propanoic Acid] are 537.4 nM and 270 nM.
On the same counts, the results for `CCCC[C@@H](COc1ccc(-c2cc3ccccc3o2)nc1)Nc1ccc(C(=O)NCCC(=O)O)cc1` [Compound 10-12, (S)-3-(4-((1-((6-(benzofuran-2-yl)pyridin-3-yl)oxy)hexan-2-yl)amino)benzamido)propanoic Acid] are 791.6 nM and 181 nM.
Take `CC[C@H](C)[C@@H](COc1ccc(-c2cc3ccccc3o2)nc1)Nc1ccc(C(=O)NCCC(=O)O)cc1` [Compound 10-13, 3-(4-(((2S,3S)-1-((6-(benzofuran-2-yl)pyridin-3-yl)oxy)-3-methylpentan-2-yl)amino)benzamido)propanoic Acid]: the “IC50 cAMP” value in experiment [1] came to 863.9 nM. The same compound registered an IC50 on glucagon receptor (GCGR) of 224 nM.
For the compound `CC[C@H](C)[C@@H](COc1ccc(-c2ccc(C(F)(F)F)cc2F)nc1)Nc1ccc(C(=O)NCCC(=O)O)cc1` [Compound 10-14, 3-(4-(((2S,3S)-1-((6-(2-fluoro-4-(trifluoromethyl)phenyl)pyridin-3-yl)oxy)-3-methylpentan-2-yl)amino)benzamido)propanoic Acid], the “IC50 cAMP” value in experiment [1] amounted to 497.1 nM. On glucagon receptor (GCGR), the IC50 came out at 306 nM.
On the same counts, the results for `CC[C@H](C)[C@@H](COc1ccc(-c2ccc(Cl)cc2Cl)nc1)Nc1ccc(C(=O)NCCC(=O)O)cc1` [Compound 10-15, 3-(4-(((2S,3S)-1-((6-(2,4-dichlorophenyl)pyridin-3-yl)oxy)-3-methylpentan-2-yl)amino)benzamido)propanoic Acid] are 301 nM and 179 nM.
On the same counts, the results for `CC[C@H](C)[C@@H](COc1ccc(-c2ccc(C(F)(F)F)cc2Cl)nc1)Nc1ccc(C(=O)NCCC(=O)O)cc1` [Compound 10-16, 3-(4-(((2S,3S)-1-((6-(2-chloro-4-(trifluoromethyl)phenyl)pyridin-3-yl)oxy)-3-methylpentan-2-yl)amino)benzamido)propanoic Acid] are 272 nM and 141 nM.
In the case of `CC(C)C[C@@H](COc1ccc(-c2ccc(C(F)(F)F)cc2)nc1)Nc1ccc(C(=O)NCCC(=O)O)cc1` [Compound 10-17, (S)-3-(4-((4-methyl-1-((6-(4-(trifluoromethyl)phenyl)pyridin-3-yl)oxy)pentan-2-yl)amino)benzamido)propanoic Acid], the “IC50 cAMP” value in experiment [1] was determined as 847 nM. The IC50 on glucagon receptor (GCGR) is 542 nM.
On the same counts, the results for `CC(C)C[C@@H](COc1ccc(-c2ccc(C(F)(F)F)cc2Cl)nc1)Nc1ccc(C(=O)NCCC(=O)O)cc1` [Compound 10-18, (S)-3-(4-((1-((6-(2-chloro-4-(trifluoromethyl)phenyl)pyridin-3-yl)oxy)-4-methylpentan-2-yl)amino)benzamido)propanoic Acid] are 880 nM and 234 nM.
On the same counts, the results for `CC(C)C[C@@H](COc1ccc(-c2ccc(Cl)cc2Cl)nc1)Nc1ccc(C(=O)NCCC(=O)O)cc1` [Compound 10-19, (S)-3-(4-((1-((6-(2,4-dichlorophenyl)pyridin-3-yl)oxy)-4-methylpentan-2-yl)amino)benzamido)propanoic Acid] are 1064 nM and 301 nM.
For `CC(C)[C@@H](COc1ccc(-c2ccc(C(F)(F)F)cc2Cl)nc1)Nc1ccc(C(=O)NCCC(=O)O)cn1` [Compound 11-1, (S)-3-(6-((1-((6-(2-chloro-4-(trifluoromethyl)phenyl)pyridin-3-yl)oxy)-3-methylbutan-2-yl)amino)nicotinamido)propanoic Acid], the “IC50 cAMP” value in experiment [1] is recorded as 8711 nM. Also, the IC50 on glucagon receptor (GCGR) was found to be 1740 nM.
With `CC(C)[C@@H](COc1ccc(-c2cc3ccccc3o2)nc1)Nc1ccc(C(=O)NCCC(=O)O)cn1` [Compound 11-2, (S)-3-(6-((1-((6-(benzofuran-2)pyridin-3-yl)oxy)-3-methylbutan-2-yl)amino)nicotinamido)propanoic Acid], the “IC50 cAMP” value in experiment [1] turned out to be 14398 nM. The IC50 at glucagon receptor (GCGR) was determined as 926 nM.
Take `Cc1nn(-c2ncc(OC[C@H](CC(C)C)Nc3ccc(C(=O)NCCC(=O)O)cc3)cn2)cc1C(F)(F)F` [Compound 12-1, (S)-3-(4-((4-methyl-1-((2-(3-methyl-4-(trifluoromethyl)-1H-pyrazol-1-yl)pyrimidin-5-yl)oxy)pentan-2-yl)amino)benzamido)propanoic Acid]: in experiment [1], the “IC50 cAMP” value is given as 14170 nM. Further, the IC50 on glucagon receptor (GCGR) is 674 nM.
As to `CC(C)[C@@H](COc1cnc(-c2cc3ccccc3o2)nc1)Nc1ccc(C(=O)NCCC(=O)O)cc1` [Compound 12-2, (S)-3-(4-((1-((2-(benzofuran-2-yl)pyrimidin-5-yl)oxy)-3-methylbutan-2-yl)amino)benzamido)propanoic Acid], in experiment [1], the “IC50 cAMP” value came to 6849 nM. In addition, the IC50 on glucagon receptor (GCGR) came to 266 nM.
On to `CC(C)C[C@@H](COc1cnc(-c2cc3ccccc3o2)nc1)Nc1ccc(C(=O)NCCC(=O)O)cc1` [Compound 12-3, (S)-3-(4-((1-((2-(benzofuran-2-yl)pyrimidin-5-yl)oxy)-4-methylpentan-2-yl)amino)benzamido)propanoic Acid], for which the “IC50 cAMP” value in experiment [1] is listed as above 30000 nM. The same compound showed an IC50 at glucagon receptor (GCGR) of 608 nM.
On the same counts, the results for `CC(C)[C@@H](COc1cnc(-c2ccc(C(F)(F)F)cc2Cl)nc1)Nc1ccc(C(=O)NCCC(=O)O)cc1` [Compound 12-4] are 9828 nM and 539 nM.
On the same counts, the results for `CCCC[C@@H](COc1cnc(-c2ccc(C(F)(F)F)cc2Cl)nc1)Nc1ccc(C(=O)NCCC(=O)O)cc1` [Compound 12-5, (S)-3-(4-((1-((2-(2-chloro-4-(trifluoromethyl)phenyl)pyrimidin-5-yl)oxy)hexan-2-yl)amino)benzamido)propanoic Acid] are 2357 nM and 451 nM.
On the same counts, the results for `CC(C)[C@@H](COc1cnc(-c2ccc(Cl)cc2Cl)nc1)Nc1ccc(C(=O)NCCC(=O)O)cc1` [Compound 12-6, (S)-3-(4-((1-((2-(2,4-dichlorophenyl)pyrimidin-5-yl)oxy)-3-methylbutan-2-yl)amino)benzamido)propanoic Acid] are above 30000 nM and 1670 nM.
Regarding `CCCC[C@@H](COc1cnc(-c2ccc(Cl)cc2Cl)nc1)Nc1ccc(C(=O)NCCC(=O)O)cc1` [Compound 12-7, (S)-3-(4-((1-((2-(2,4-dichlorophenyl)pyrimidin-5-yl)oxy)hexan-2-yl)amino)benzamido)propanoic Acid], the “IC50 cAMP” value in experiment [1] came to 3868 nM. The same compound had an IC50 at glucagon receptor (GCGR) of 888 nM.
On the same counts, the results for `CCC(C)[C@@H](COc1cnc(-c2ccc(C(F)(F)F)cc2Cl)nc1)Nc1ccc(C(=O)NCCC(=O)O)cc1` (stereo partly drawn) [Compound 12-8, 3-(4-(((2S)-1-((2-(2-chloro-4-(trifluoromethyl)phenyl)pyrimidin-5-yl)oxy)-3-methylpentan-2-yl)amino)benzamido)propanoic Acid] are 2719 nM and 331 nM.
On the same counts, the results for `CC(C)C[C@@H](COc1cnc(-c2ccc(C(F)(F)F)cc2Cl)nc1)Nc1ccc(C(=O)NCCC(=O)O)cc1` [Compound 12-9, (S)-3-(4-((1-((2-(2-chloro-4-(trifluoromethyl)phenyl)pyrimidin-5-yl)oxy)-4-methylpentan-2-yl)amino)benzamido)propanoic Acid] are 19185 nM and 501 nM.
On the same counts, the results for `CCC(C)[C@@H](COc1cnc(-c2ccc(Cl)cc2Cl)nc1)Nc1ccc(C(=O)NCCC(=O)O)cc1` (stereo partly drawn) [Compound 12-10, 3-(4-(((2S)-1-((2-(2,4-dichlorophenyl)pyrimidin-5-yl)oxy)-3-methylpentan-2-yl)amino)benzamido)propanoic Acid] are 890 nM and 337 nM.
Regarding `CC(C)C[C@@H](COc1cnc(-c2ccc(Cl)cc2Cl)nc1)Nc1ccc(C(=O)NCCC(=O)O)cc1` [Compound 12-11, (S)-3-(4-((1-((2-(2,4-dichlorophenyl)pyrimidin-5-yl)oxy)-4-methylpentan-2-yl)amino)benzamido)propanoic Acid], the “IC50 cAMP” value in experiment [1] was 3585 nM. The IC50 at glucagon receptor (GCGR) worked out at 233 nM.
